Data reported in patent US10785978B2, “Control and repellency of biting flies, house flies, ticks, ants, fleas, biting midges, cockroaches, spiders and stink bugs” (priority 2012, dated 2020).

Key:
Format in all cases: in vivo
[1] = tested on: house flies; assay: House fly repellency on treated filter paper food trays in cages; conditions: 5% in isopropyl alcohol; over 6 hours
Method: The bottom of each cage was lined with brown craft paper and divided into 4 equal quadrants. Each quadrant housed a makeshift filter paper food tray. Two of the four filter papers were treated with repellent and two treated with isopropanol. Control cages contained filter papers that were treated with 4 filter papers of isopropanol only. The number of flies resting on filter paper per quadrant was recorded every 30 minutes for a total of 6 hours. Cages were rotated to eliminate positional bias. […] Each of the test samples were diluted in isopropyl alcohol.

[2] = tested on: Brown Dog Ticks, Rhipicephalus sanguineus; assay: Brown Dog tick repellency on vertical filter paper strips; conditions: for ticks repelled: concentration not given
Method: Control against Brown Dog ticks was determined in the following protocol. Strips of filter paper, 1″ by 3″, were placed on a sheet of aluminum foil treated with 1 ml each of the test samples and allowed to dry. The end of each treated strip was stapled to an untreated filter paper strip of the same dimensions. The stapled strips were suspended in a vertical position above a tray, with the treated half attached to a horizontal glass rod by a metal clip. The untreated half was lowered when the strip is vertically positioned. Brown Dog Ticks, Rhipicephalus sanguineus, mixed sexes, were purchased from a supplier. Five replicates of five ticks for each treatment regimen plus five additional replicates for the control were employed. Ticks shipped to the test site were given at least one day to acclimate to “shipping stress” before they are used for testing. Those tick specimens which appeared sluggish or moribund were not used. Suitable ticks were removed from their containers and allowed to quest on the free end of the test strip. Once present on the strip they were watched as they crawled up the strip until they contacted the treated paper. If the tick, once in contact with the treated zone, either turned around, stopped without proceeding further, or dropped off, the tick is classified as repelled. If it continued to crawl onto the treated strip, even after it stopped briefly, that tick was classified as not repelled. A maximum observation time of 1 minute per replicate was allowed for ticks to respond after reaching the treated area, but during the test, if more time was needed, the maximum observation time may have been adjusted at the discretion of the study coordinator. At the end of the observation time, the number of ticks repelled was recorded. Tick behavior was recorded when applicable, such as whether increased number of affected or repelled ticks occurred in successive replicates over time. After the completion of each treatment parameter, the testing chamber was ventilated for five minutes by turning on the exhaust fan and opening the door leading into the chamber. Ticks were used only once. Average number of ticks displaying each behavior category were calculated and compared to the control replicates.

[3] = tested on: Brown Dog Ticks, Rhipicephalus sanguineus; conditions: in vivo
Description: The following protocol was employed to test compounds of this invention for toxicity (mortality) against ticks. There were 5 replicates of 5 dog ticks for each treatment. […] Filter paper strips were laid on a sheet of aluminum foil and enough of each of the test sample was applied to thoroughly saturate the paper. The paper was then rolled and placed inside a glass shell vial as to line the sides of the vial. A small paper disc, also saturated with the test sample, was then placed at the bottom of the vial. Brown Dog Ticks, Rhipicephalus sanguineus, were then introduced into the vials which were covered with aluminum foil, the inside of which was painted with some of the test sample. The ticks remained in the vials, constantly exposed to the test samples, for the duration of the test. A small hole was poked through the foil for ventilation. Each control replicate was subjected to the same procedures outlined above, except that they were not treated. The controls were placed in the same area as the test replicates for the duration of the test. Mortality observations were made at 24 hours. Ticks were classified as alive (able to move normally), moribund (those classified as moribund will show some movement, but will not be able to crawl in a coordinated manner, or will be unable to right themselves if placed on their backs), or dead (no movement after physical stimuli). All dead ticks were confirmed by probing or agitation to make sure that they are unable to move; any that show movement visible to the naked eye were recorded as moribund. At 24 hours the tick mortality was 0% for the control, 100% for γ-dodecalactone, 100% for methyl apritone and 76% for methyl dihydrojasmonate.

[4] = tested on: German cockroaches; assay: German cockroach repellency, choice of food stations in arena; conditions: 50% in acetone; at 4 hours
Method: The efficacy of compounds of this invention to control or repel German cockroaches was illustrated using the following protocol. One food pellet each was placed on a paper square (station) treated with one of the repellent materials. Materials were diluted to 50% in acetone and a straight acetone station was also used. Both stations were placed on the same side of the arena. Cockroaches were starved for 2 days and then released into the arena. They were given a choice to feed on either food pellet. A control arena with an acetone treated station and an untreated station was also used. The distribution of cockroaches within the arena was recorded at 30 minute intervals over 4 hours. Repellency at 4 hours was calculated by the number of cockroaches on the untreated station vs. the total number of cockroaches on the stations.

[5] = tested on: Black Widow spiders; assay: Black Widow spider choice test in half-treated tube shelters; conditions: 5% in isopropanol; location after 24 hours
Method: Control against Black Widow spiders was determined using the following protocol. One test container containing two card stock tube shelters, one half treated with a test sample and the other half treated with isopropanol was prepared. A spider was introduced in the center of the tube. The spider was then given a choice to move to one end of the shelters. The following day, its location is recorded and compared to the results from a shelter containing untreated half-shelters.
On the day of the test one of the two shelters was sprayed with the test sample solution using a 2 oz pump spray bottle. Only the surfaces that the spider will most likely contact were treated. Therefore, only the inside of one of the shelter tubes, including the end disc (spiders will not be able to access the outside part of the shelter) were sprayed. The total amount of product was weighed and recorded. The treated surface was allowed to dry for a minimum of ½ hour, or until solvent could not be detected by smell. At this time the shelter tubes were assembled.
Card stock paper tube shelters were constructed from 2 half-letter sized sheets (5½″×8½″) of paper, rolled and taped together to form a short tube. One end of each was covered with a circle of card stock paper, while the other end was later taped to the open end of the other half sheet, forming one long tube. […] The solvent-treated half was labeled with a “C” on the inner and outer walls with a pencil or a pen with solvent resistant ink. Prior to forming the final tube shelter, a semi-circular hole was cut into one of the margins of each sheet such that, once the two tubes are taped together, the holes correspond to the top and at the junction of the tubes for introduction of the spiders.
Twenty-five arenas were prepared in this manner for each test sample. There were five replicates of five spiders. Twenty-five additional control arenas were also prepared. They were prepared the same way, except that areas to be sprayed were sprayed with isopropanol only.
Replicates of five spiders were selected for each test formulation and for the control. The specimens were visually examined for overall physical condition. […] The spiders were transferred directly into the holding vials using flexible forceps or with a little coaxing with an artist brush. Because of their cannibalistic tendencies, each vial contained only one spider. There they were held until the time for testing.
At the test start the spiders were placed directly in the middle, through the opening at the top of the shelter tube, and the opening covered, with only one spider per arena. […] They were left alone for 24 hours, after which time their location within the arena was recorded. Spiders present inside the shelter treated with the test repellent were considered tolerant.

Row | Compound | Overall % Repellency [1] [%] | Mean % repelled ([2]; 7.5% in isopropyl alcohol) [%] | Mean % repelled ([2]; Neat) [%] | ticks repelled [2] [%] | 24 hr mortality (%) [3] [%] | tick mortality at 24 hours [3] [%] | % Repellency 4 hr [4] [%] | % Repellency [5] [%]
1 | CCC(C)=CCCC(C)=CCC1CCCC1=O (stereo not drawn) [Methyl apritone, methyl apritone] | 45 | 100 | 100 | 100 | 100 | 100 | 100 | 37.5
2 | CCCCCC1C(=O)CCC1CC(=O)OC (stereo not drawn) [Methyl dihydrojasmonate, methyl dihydrojasmonate] | 52 | – | 100 | 100 | 76 | 76 | 72.2 | 87.5
